Where a SMILES comes first, the peptide text is derived from it. The star is where a group is joined. Daunorubicin(13-NOCH2CO) = COc1cccc2c1C(=O)c1c(O)c3c(c(O)c1C2=O)C[C@@](O)(C(C)=NOCC(=O)*)C[C@@H]3O[C@H]1C[C@H](N)[C@H](O)[C@H](C)O1
Columns and labels:
PANC-1 cells [1] = experiment: cells; format: cell-based, human
Procedure: This measurement is based on the registration of electrical resistance (impedance, Z) in alternating current (AC) field. The living cells transplanted to the gold measuring electrodes are physically insulated by phospholipid bilayer that covers them. This instrumentally measurable property changes (decreases) in response to cellular cytotoxic agents. Our measurements were performed on xCELLigence single plate (ACEA Biosciences, San Diego, CA, USA) dedicated for impedimetric analysis of cellular samples at 37 °C and 5% CO2.
During the initial phase of the experiments—the baseline recording—a special 96-well cell culture plate, E-plate (ACEA Biosciences), equipped with measuring electrodes, was pretreated with freshly prepared cell culture medium (for 60 min; sampling frequency: 1 min). Subsequently, PANC-1 cells were plated at a cell density of 10^4 cells/well. During the 24 h incubation, the cells evenly covered the electrodes at the bottom of the wells of the E-plate. The resulting confluent cell cultures were then treated with the test substances at the following final concentrations: 10^−6, 10^−5, 10^−4 M. Total treatment duration was 72 h and the sampling rate was 1 min (0–24 h); and then 15 min (48–72 h). In our measurements, three replicates were used, the control was the drug-free medium. […] The CI results were analyzed with xCELLigence RTCA 2.0 software and Origin Pro 8.0 software.

PANC-1 cells [2] = experiment: Colorimetric (alamarBlue) cytotoxicity on PANC-1; format: cell-based; conditions: Homo sapiens, concentration needed to decrease the cell viability by 50%, read-out: IC50 (colorimetry)
Procedure: (§1) The protocol for the alamarBlue-assay was similar to the method which was published earlier, with some minor modifications. Briefly, the cell seeding occurred on 96-well cell culture plates (Sarstedt AG, Nümbrecht, Germany) at 10^4 cells/well concentration. After a 24 h long culturing period, the treatment was carried out with the conjugates at 10^−4, 10^−5 and 10^−6 M final concentrations for 24, 48 and 72 h. In the next steps, the alamarBlue reagent (0.15 mg/mL, Sigma-Aldrich) dissolved in phosphate-buffered saline (PBS; pH = 7.2), was added to the wells. After 6 h incubation with the reagent, the fluorescence intensity of the samples was obtained by an LS-50B Luminescence Spectrometer (Perkin Elmer Ltd., Buckinghamshire, UK) or a Fluoroskan^TM FL Microplate Fluorometer and Luminometer (Thermo Scientific, Waltham, MA, USA) by using the following settings: λex = 560 nm and λem = 590 nm.
Three parallels were performed per treatment group. […] Fluorescence intensities of the samples treated with various concentrations of conjugates were expressed as a percentage of the fluorescence of control.
To confirm that the different methods can be used to compare the effects of conjugates on the different model cells, the cytotoxicity of Dau was measured by both impedimetric and colorimetric methods on PANC-1 cells.

PANC-1 cells [3] = experiment: Flow cytometric cell surface binding and internalization; format: cell-based, human; conditions: 10^-5 M, flow cytometry, mean of 2 parallels ± SD
Procedure: Cell surface binding and internalization of the conjugates were performed by flow cytometry (FACS-Calibur, Becton Dickinson, San Jose, CA, USA) based on the detection of the fluorescence activity of Dau (λex = 488 nm, λem = 585 nm) linked to the peptides. Studies of binding and uptake were performed on PANC-1 cells.
Cells were seeded (2.5 × 10^5 cells/mL, 900 μL/well) on 12-well plates, 24 h prior to the treatment with conjugates and free Dau. To distinguish the cell surface binding and internalization of conjugates, the cells were treated with the conjugate solutions at a final concentration of 10^−5 M at two temperatures (37 °C and 4 °C) in parallel. After the incubation period of 30 min, cells were washed with PBS and were removed from the plate using TrypLE (Thermo Fisher Scientific, Waltham, MA, USA) cell-dissociation reagent, thus avoiding cell surface protein degradation. […] After the centrifugation of the cell suspension, the cell pellets were resuspended in PBS (400 μL/tube) and the samples were measured by a flow cytometer.
To determine the fluorescence intensity and to evaluate the results CellQuest Pro (Becton Dickinson) and Flowing2.5.1. […] The instrument determines the relative fluorescence intensity of Dau built in the conjugates as geometric mean channel (GeoMean) value. […]

[4] = test system: s.c. PANC-1 human pancreatic carcinoma; experiment: Subcutaneous PANC-1 human pancreatic cancer mouse model; format: in vivo, SCID mice
Procedure: For establishing pancreatic tumor in experimental animals, PANC-1 cells were used, which were cultured in RPMI 1640 medium (Lonza), supplemented with 10% heat-inactivated FBS (Biosera, Nuaille, France), and 1% penicillin/streptomycin (Lonza). They were cultured in sterile T175 flasks (Sarstedt AG) with a ventilation cap at 37 °C in a humidified atmosphere with 5% CO2.
Pancreatic cancer (PANC-1) cells were injected into SCID male mice (22–34 g) subcutaneously (s.c.), 3 × 10^6 cells per animal in 200 µL M199 (Sigma-Aldrich) per animal. The (i.p.) administration of treatment started 10 days after cells inoculation when the average tumor volume was 36 mm^3. Four groups with 7 animals per group were established and treated. The doses and schedule were as follows: control group was treated with sterile water used for the solubilization of Dau and the conjugates, while animals in the group administered with free Dau were treated on days 10, 19 and 24 after cell inoculation with a dose of 1 mg/kg. Mice administered with the conjugate 4 were separated in two groups and treated either with a dose of 10 mg/kg Dau-content (21.6 mg/kg conjugate) or with a dose of 2 mg/kg Dau-content (4.3 mg/kg conjugate) on days 10, 13, 19, 21, 24, 28, 31, 34, 39, 42, 46, 49, 53, 56, 60, 63, 67 and 70 after cells inoculation. Animal weight and tumor volumes were measured initially when the treatment started and at periodic intervals according to the treatment schedule. A digital caliper was used to measure the longest (a) and the shortest diameter (b) of a given tumor. The tumor volume was calculated using the formula V = ab^2 × π/6, where a and b represent the measured parameters (length and width). The experiment was terminated on day 74 after cells inoculation (day 65 of treatment). Animals treated with free Dau had to be terminated after 3 treatments on day 28 after cells inoculation (day 19 of treatment) due to significant weight-loss. Animals were sacrificed by cervical dislocation; primary tumors and livers were harvested and weighted.

[5] = in vivo; cited from earlier work
Excerpt: Daunomycin (Dau) was applied as a payload. It was indicated in our previous research that Dau can be attached to peptides via oxime linkage easily with good yields. […] It might be because of the lower DNA binding affinity of the Dau containing metabolite compared to Dau. However, the oxime linked conjugates are stable in the circulation and no loss of Dau can be observed before reaching the target cells.

A2058 cells = format: cell-based, human; conditions: 1e-5 M
Procedure: (§2) EBC-1 and Colo-205 model cells have weak/negligible adherent properties, and A2058 cells could not produce constant cell index values. Therefore, a colorimetric assay (alamarBlue-assay) was chosen instead of the xCELLigence system to investigate the viability of these model cells treated with the conjugates. Due to the growth characteristics of NHDF cells, alamarBlue-assay was performed also on this cell line.
as §1
(§3) Three parallels were performed per treatment group. In the case of controls, an equivalent volume of cell culture media was added to the cell. Fluorescence intensities of the samples treated with various concentrations of conjugates were expressed as a percentage of the fluorescence of control.

Colo-205 cells = format: cell-based, human; conditions: 1e-5 M
Procedure: as §2, §1, §3

EBC-1 cells = format: cell-based, human; conditions: 1e-5 M
Procedure: as §2, §1, §3

[6] = Acute and chronic toxicity in healthy mice; format: in vivo; conditions: healthy Balb/c male mice, 3 per group; i.p.; acute 3.125, 6.25, 12.5, 25 mg/kg Dau-content single; chronic 10 mg/kg Dau-content on days 1, 3, 7, 9, 11; 14 days
Procedure: Prior to the determination of in vivo antitumor activity, the acute and chronic toxicity studies of conjugate 4 (Dau=Aoa-GFLG-K(Dau=Aoa)-SKAAKN-OH) were investigated. Healthy Balb/c male mice (3 animals in each group with 29–33 g body weight) were used for these experiments. The conjugate was dissolved in sterile water for injection (Pharmamagist Kft., Budapest, Hungary) and injected in a volume of 0.1 mL/10 g body weight using the appropriate concentrations. In acute toxicity study, intraperitoneal (i.p.) administration of the conjugate 4 was carried out in 4 different doses: 3.125, 6.25, 12.5 and 25 mg/kg Dau-content. In chronic toxicity study, mice were treated with a dose of 10 mg/kg Dau-content of the conjugate on days 1, 3, 7, 9 and 11 (5 treatments). The toxicity was evaluated on the basis of life span, behavior and looking of the mice, as well as body weight. These parameters were followed for 14 days.

SMILES | IC50 (PANC-1 cells [1]; Homo sapiens, PANC-1, read-out: IC50 (impedimetry)) [nM] | IC50 (PANC-1 cells [2]) [nM] | Relative fluorescence intensity (GeoMean values), Cellular uptake (PANC-1 cells [3]; 30 min, GeoMean at 37 °C minus GeoMean at 4 °C) | Relative fluorescence intensity (GeoMean values), Binding (PANC-1 cells [3]; 30 min at 4 °C, Dau fluorescence, corrected for autofluorescence) | Animal weight decrease compared to start of the experiment ([4]; free Dau 1 mg/kg i.p., 3 treatments, day 28 after cell inoculation) [%] | Decrease of average liver/body weight ratio vs control ([4]; free Dau 1 mg/kg i.p., three times, day 28 after cell inoculation) [%] | Inhibition of tumor growth (tumor volume) ([4]; free Dau 1 mg/kg i.p., day 28 after cell inoculation (day 19 of treatment)) [%] | Liver / body weight (printed in Figure 9D, %) ([4]; free Dau 1 mg/kg, three treatments, day 28, relative to control) [%] | Maximum tolerated dose (MTD) [5] [mg/kg] | Cell viability at 10^−6 M (PANC-1 cells [1]; 24 h, 1e-6 M) | Viability after 24 h (PANC-1 cells [1]; 24 h, 1e-5 M) [%] | Viability (%) at 10-5 M concentration, after 72 h incubation, A2058 (A2058 cells) [%] | Viability (%) at 10-5 M concentration, after 72 h incubation, Colo-205 (Colo-205 cells) [%] | Viability (%) at 10-5 M concentration, after 72 h incubation, EBC-1 (EBC-1 cells) [%] | Acute and chronic toxicity (body weight, general looking, behavior) [6]
COc1cccc2c1C(=O)c1c(O)c3c(c(O)c1C2=O)C[C@@](O)(C(C)=O)C[C@@H]3O[C@H]1C[C@H](N)[C@H](O)[C@H](C)O1 [Dau, Daunomycin] | 189 | 179 | 702.048 ± 84.340 | 72.057 ± 3.907 | 21 | 29.1 | 35.7 | 70.9 | 1 to 2 |  |  |  |  |  | 
COc1cccc2c1C(=O)c1c(O)c3c(c(O)c1C2=O)C[C@@](O)(C(C)=NOCC(=O)NCCCC[C@H](NC(=O)CNC(=O)[C@H](CC(C)C)NC(=O)[C@H](Cc1ccccc1)NC(=O)CNC(=O)CON=C(C)[C@]1(O)Cc2c(O)c4c(c(O)c2[C@@H](O[C@H]2C[C@H](N)[C@H](O)[C@H](C)O2)C1)C(=O)c1c(OC)cccc1C4=O)C(=O)N[C@@H](CO)C(=O)N[C@@H](CCCCN)C(=O)N[C@@H](C)C(=O)N[C@@H](C)C(=O)N[C@@H](CCCCN)C(=O)N[C@@H](CC(N)=O)C(=O)O)C[C@@H]3O[C@H]1C[C@H](N)[C@H](O)[C@H](C)O1 [conjugate 4, Dau=Aoa-GFLG-K(Dau=Aoa)SKAAKN-OH] ({Daunorubicin(13-NOCH2CO)}-GFLGK(Daunorubicin(13-NOCH2CO))SKAAKN-OH) |  |  |  |  |  |  |  |  |  | higher than 100% | 91 | 29.8 ± 4.5 | 19.8 ± 0.5 | 32.2 ± 4.2 | not toxic at the applied concentrations

Reference: article PMC7355684 (Pharmaceutics, 2020)
